In the supplement of paper PMC8741786:
In brackets after ≈: the same amount, converted by molar mass.

How the values were obtained:
Experiment in all cases: minimum inhibitory concentration (ETEST)
Neisseria lactamica = details: population: general population, antibiotic use in previous 6 months: No
Experimental: (§1)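 Oropharyngeal Neisseria isolates from MSM and employees in Belgium were identified to species by MALDI-TOF MS. MICs of azithromycin, ceftriaxone and ciprofloxacin were determined by ETEST on GC agar after 24 h at 36.5 °C and 5-7% CO2, in mg/L. Values beyond the strip range are reported as >256 (azithromycin) or <0.016 (ceftriaxone); isolates that did not grow are NA.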

Neisseria meningitidis = tested on: Neisseria meningitidis
Experimental: as §1

[1] = tested on: Neisseria subflava/flavescens/perflava
Experimental: as §1

O=C(O)c1cn(C2CC2)c2cc(N3CCNCC3)c(F)cc2c1=O [ciprofloxacin]
Neisseria lactamica
Details | minimum inhibitory concentration [µg/mL]
isolate id (sample isolate): Co000761_1 | 0.19 (≈ 0.573 µM)
isolate id (sample isolate): Co000771_1 | 0.064 (≈ 0.193 µM)

Details | minimum inhibitory concentration [µg/mL]
Neisseria meningitidis, isolate id (sample isolate): 19040471_1, population: MSM, antibiotic use in previous 6 months: No | 0.003 (≈ 0.00905 µM)
Neisseria meningitidis, isolate id (sample isolate): 19040855_1, population: MSM, antibiotic use in previous 6 months: No | 0.004 (≈ 0.0121 µM)
Neisseria meningitidis, isolate id (sample isolate): 19040874_2, population: MSM, antibiotic use in previous 6 months: No | 0.004 (≈ 0.0121 µM)
Neisseria meningitidis, isolate id (sample isolate): 19040900_2, population: MSM, antibiotic use in previous 6 months: No | 0.004 (≈ 0.0121 µM)
Neisseria meningitidis, isolate id (sample isolate): 19042150_2, population: MSM, antibiotic use in previous 6 months: Yes | 0.002 (≈ 0.00604 µM)
Neisseria meningitidis, isolate id (sample isolate): 19042756_3, population: MSM, antibiotic use in previous 6 months: Yes | 0.008 (≈ 0.0241 µM)
Neisseria meningitidis, isolate id (sample isolate): 19043201_1, population: MSM, antibiotic use in previous 6 months: No | 0.003 (≈ 0.00905 µM)
Neisseria meningitidis, isolate id (sample isolate): 19043201_2, population: MSM, antibiotic use in previous 6 months: No | 0.003 (≈ 0.00905 µM)
Neisseria meningitidis, isolate id (sample isolate): 19043274_1, population: MSM, antibiotic use in previous 6 months: Yes | 0.004 (≈ 0.0121 µM)
Neisseria meningitidis, isolate id (sample isolate): 19043274_2, population: MSM, antibiotic use in previous 6 months: Yes | 0.004 (≈ 0.0121 µM)
Neisseria meningitidis, isolate id (sample isolate): 19051853_1, population: MSM, antibiotic use in previous 6 months: No | 0.004 (≈ 0.0121 µM)
Neisseria meningitidis, isolate id (sample isolate): 19052394_3, population: MSM, antibiotic use in previous 6 months: Yes | 0.002 (≈ 0.00604 µM)
Neisseria meningitidis, isolate id (sample isolate): 19052434_1, population: MSM, antibiotic use in previous 6 months: Yes | 0.006 (≈ 0.0181 µM)
Neisseria meningitidis, isolate id (sample isolate): 19060069_1, population: MSM, antibiotic use in previous 6 months: Yes | 0.006 (≈ 0.0181 µM)
Neisseria meningitidis, isolate id (sample isolate): 19060069_2, population: MSM, antibiotic use in previous 6 months: Yes | 0.004 (≈ 0.0121 µM)
Neisseria meningitidis, isolate id (sample isolate): 19060089_2, population: MSM, antibiotic use in previous 6 months: Yes | 0.002 (≈ 0.00604 µM)
Neisseria meningitidis, isolate id (sample isolate): 19061666_1, population: MSM, antibiotic use in previous 6 months: Yes | 0.064 (≈ 0.193 µM)
Neisseria meningitidis, isolate id (sample isolate): 19062990_1, population: MSM, antibiotic use in previous 6 months: Yes | 0.004 (≈ 0.0121 µM)
Neisseria meningitidis, isolate id (sample isolate): 19070019_2, population: MSM, antibiotic use in previous 6 months: No | 0.003 (≈ 0.00905 µM)
Neisseria meningitidis, isolate id (sample isolate): 19070019_4, population: MSM, antibiotic use in previous 6 months: No | 0.003 (≈ 0.00905 µM)
Neisseria meningitidis, isolate id (sample isolate): 19070047_1, population: MSM, antibiotic use in previous 6 months: No | 0.006 (≈ 0.0181 µM)
Neisseria meningitidis, isolate id (sample isolate): 19082621_2, population: MSM, antibiotic use in previous 6 months: No | 0.004 (≈ 0.0121 µM)
Neisseria meningitidis, isolate id (sample isolate): 19091461_1, population: MSM, antibiotic use in previous 6 months: No | 0.008 (≈ 0.0241 µM)
Neisseria meningitidis, isolate id (sample isolate): 19091461_2, population: MSM, antibiotic use in previous 6 months: No | 0.008 (≈ 0.0241 µM)
Neisseria meningitidis, isolate id (sample isolate): 19091973_1, population: MSM, antibiotic use in previous 6 months: No | 0.003 (≈ 0.00905 µM)
Neisseria meningitidis, isolate id (sample isolate): 19092429_3, population: MSM, antibiotic use in previous 6 months: No | 0.003 (≈ 0.00905 µM)
Neisseria meningitidis, isolate id (sample isolate): 19103457_1, population: MSM, antibiotic use in previous 6 months: No | 0.003 (≈ 0.00905 µM)
Neisseria meningitidis, isolate id (sample isolate): 19103457_4, population: MSM, antibiotic use in previous 6 months: No | 0.003 (≈ 0.00905 µM)
Neisseria meningitidis, isolate id (sample isolate): 19110394_1, population: MSM, antibiotic use in previous 6 months: No | 0.003 (≈ 0.00905 µM)
Neisseria meningitidis, isolate id (sample isolate): 19113049_3, population: MSM, antibiotic use in previous 6 months: No | 0.004 (≈ 0.0121 µM)
Neisseria meningitidis, isolate id (sample isolate): 19113049_6, population: MSM, antibiotic use in previous 6 months: No | 0.003 (≈ 0.00905 µM)
Neisseria meningitidis, isolate id (sample isolate): Co000765_1, population: general population, antibiotic use in previous 6 months: No | 0.004 (≈ 0.0121 µM)
Neisseria meningitidis, isolate id (sample isolate): Co000790_1, population: general population, antibiotic use in previous 6 months: No | 0.125 (≈ 0.377 µM)
Neisseria meningitidis, isolate id (sample isolate): Co000790_3, population: general population, antibiotic use in previous 6 months: No | 0.125 (≈ 0.377 µM)
[1], isolate id (sample isolate): 19041762_1, population: MSM, antibiotic use in previous 6 months: Yes | 1.5 (≈ 4.53 µM)
[1], isolate id (sample isolate): 19041762_1.1, population: MSM, antibiotic use in previous 6 months: Yes | 3 (≈ 9.05 µM)
[1], isolate id (sample isolate): 19041780_1, population: MSM, antibiotic use in previous 6 months: Yes | 0.25 (≈ 0.754 µM)
[1], isolate id (sample isolate): 19042150_1, population: MSM, antibiotic use in previous 6 months: Yes | 0.25 (≈ 0.754 µM)
[1], isolate id (sample isolate): 19042150_3, population: MSM, antibiotic use in previous 6 months: Yes | 0.032 (≈ 0.0966 µM)
[1], isolate id (sample isolate): 19042756_1, population: MSM, antibiotic use in previous 6 months: Yes | 1 (≈ 3.02 µM)
[1], isolate id (sample isolate): 19042756_2, population: MSM, antibiotic use in previous 6 months: Yes | 0.75 (≈ 2.26 µM)
[1], isolate id (sample isolate): 19043201_1.1, population: MSM, antibiotic use in previous 6 months: No | 0.25 (≈ 0.754 µM)
[1], isolate id (sample isolate): 19043201_2.1, population: MSM, antibiotic use in previous 6 months: No | 0.38 (≈ 1.15 µM)
[1], isolate id (sample isolate): 19043201_3, population: MSM, antibiotic use in previous 6 months: No | 0.25 (≈ 0.754 µM)
[1], isolate id (sample isolate): 19043274_3, population: MSM, antibiotic use in previous 6 months: Yes | 0.25 (≈ 0.754 µM)
[1], isolate id (sample isolate): 19050474_1, population: MSM, antibiotic use in previous 6 months: No | 0.25 (≈ 0.754 µM)
[1], isolate id (sample isolate): 19050514_1, population: MSM, antibiotic use in previous 6 months: Yes | 0.5 (≈ 1.51 µM)
[1], isolate id (sample isolate): 19050949_1, population: MSM, antibiotic use in previous 6 months: No | 0.016 (≈ 0.0483 µM)
[1], isolate id (sample isolate): 19050949_2, population: MSM, antibiotic use in previous 6 months: No | 0.38 (≈ 1.15 µM)
[1], isolate id (sample isolate): 19050949_2.1, population: MSM, antibiotic use in previous 6 months: No | 0.38 (≈ 1.15 µM)
[1], isolate id (sample isolate): 19051904_2, population: MSM, antibiotic use in previous 6 months: Yes | 0.38 (≈ 1.15 µM)
[1], isolate id (sample isolate): 19051904_3, population: MSM, antibiotic use in previous 6 months: Yes | 0.38 (≈ 1.15 µM)
[1], isolate id (sample isolate): 19052394_1, population: MSM, antibiotic use in previous 6 months: Yes | 0.19 (≈ 0.573 µM)
[1], isolate id (sample isolate): 19052394_1.1, population: MSM, antibiotic use in previous 6 months: Yes | 0.19 (≈ 0.573 µM)
[1], isolate id (sample isolate): 19060089_1, population: MSM, antibiotic use in previous 6 months: Yes | 0.38 (≈ 1.15 µM)
[1], isolate id (sample isolate): 19062994_1, population: MSM, antibiotic use in previous 6 months: Yes | 0.016 (≈ 0.0483 µM)
[1], isolate id (sample isolate): Co000761_2, population: general population, antibiotic use in previous 6 months: No | 0.012 (≈ 0.0362 µM)
[1], isolate id (sample isolate): Co000761_3, population: general population, antibiotic use in previous 6 months: No | 0.75 (≈ 2.26 µM)
[1], isolate id (sample isolate): Co000761_5, population: general population, antibiotic use in previous 6 months: No | 0.38 (≈ 1.15 µM)
[1], isolate id (sample isolate): Co000761_6, population: general population, antibiotic use in previous 6 months: No | 0.008 (≈ 0.0241 µM)
[1], isolate id (sample isolate): Co000762_3, population: general population, antibiotic use in previous 6 months: No | 0.016 (≈ 0.0483 µM)
[1], isolate id (sample isolate): Co000762_4, population: general population, antibiotic use in previous 6 months: No | 0.016 (≈ 0.0483 µM)
[1], isolate id (sample isolate): Co000763_2, population: general population, antibiotic use in previous 6 months: No | 0.008 (≈ 0.0241 µM)
[1], isolate id (sample isolate): Co000764_1, population: general population, antibiotic use in previous 6 months: No | 0.032 (≈ 0.0966 µM)
[1], isolate id (sample isolate): Co000764_2, population: general population, antibiotic use in previous 6 months: No | 0.047 (≈ 0.142 µM)
[1], isolate id (sample isolate): Co000765_2, population: general population, antibiotic use in previous 6 months: No | 0.023 (≈ 0.0694 µM)
[1], isolate id (sample isolate): Co000765_3, population: general population, antibiotic use in previous 6 months: No | 0.016 (≈ 0.0483 µM)
[1], isolate id (sample isolate): Co000765_4, population: general population, antibiotic use in previous 6 months: No | 0.012 (≈ 0.0362 µM)
[1], isolate id (sample isolate): Co000766_1, population: general population, antibiotic use in previous 6 months: No | 0.047 (≈ 0.142 µM)
[1], isolate id (sample isolate): Co000766_3, population: general population, antibiotic use in previous 6 months: No | 0.008 (≈ 0.0241 µM)
